Results: US11293927B2, “Screening methods for PARP modulators” (Ribon Therapeutics, Inc., priority 2018, dated 2022)

Target: T1, PARP12 (Homo sapiens, UniProt Q9H0J9)
T1 sequence (Q9H0J9 489-684): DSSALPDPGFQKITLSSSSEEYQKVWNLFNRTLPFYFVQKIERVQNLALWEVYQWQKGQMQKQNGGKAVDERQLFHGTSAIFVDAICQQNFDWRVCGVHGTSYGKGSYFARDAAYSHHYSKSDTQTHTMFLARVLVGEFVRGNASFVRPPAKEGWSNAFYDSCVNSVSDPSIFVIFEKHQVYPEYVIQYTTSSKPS
Assay: In vitro TR-FRET probe displacement assay (Probe C), PARP12
Assay type: binding
Parameters: 489-684 of
Conditions: TR-FRET displacement of Probe C, PARP12 residues 489-684
Protocol: A portion of PARP12 (residues 489 to 684 of NP_073587.1 (SEQ ID NO: 3), GenBank Accession No. NM_022750.3) was overexpressed in Sf9 cells. An N-terminal fusion tag, MAHHHHHHENLYFQSM (SEQ ID NO: 8), was used to purify the protein from cell lysates. The fusion tag was left on the protein for use in the probe displacement assay.
Displacement of a Probe C binding to monoPARP active sites was measured using a time-resolved fluorescence resonance energy transfer (TR-FRET) assay. 20 nL of a dose response curve of each test compound was spotted in black 384-well polystyrene proxiplates (Perkin Elmer) using a Mosquito (TTP Labtech). Reactions were performed in a 8 μL volume by adding 6 μL of the monoPARP and Probe C in assay buffer (20 mM HEPES pH=8, 100 mM NaCl, 0.1% bovine serum albumin, 2 mM DTT and 0.002% Tween20), incubating with test compound at 25° C. for 30 min, then adding 2 μL of ULight-streptavidin and LANCE Eu-W 1024 Anti-6×His (Perkin Elmer). Binding reactions were equilibrated at 25° C. for an additional 30 min, then read on an Envision platereader equipped with a LANCE/DELFIA top mirror (Perkin Elmer) using excitation of 320 nm and emission of 615 nm and […] with a 90 μs delay. The ratio of the 665/615 nm emission were calculated for each well to determine the amount of complex of monoPARP and Probe C in each well. […]

IC50: 200 nM
Structure (SMILES): O=c1[nH]ncc(N2Cc3ccc(OC4CCNCC4)cc3C2)c1C(F)(F)F [Compound A, 5-[5-(Piperidin-4-yloxy)-2,3-dihydro-1H-isoindol-2-yl]-4-(trifluoromethyl)-2,3-dihydropyridazin-3-one]
